PMC5980259, “GI‐530159, a novel, selective, mechanosensitive two‐pore‐domain potassium (K2P) channel opener, reduces rat dorsal root ganglion neuron excitability” (British Journal of Pharmacology, 2017)

How the values were obtained:
Assay type in all cases: cell-based
hTREK1 [1] = biological target: T1, hTREK1 (Homo sapiens, UniProt O95069); assay: Automated whole-cell patch clamp (Qpatch), CHO–TREK1 cells; parameters: expressed in transfected cells; settings: 1 μM; stably transfected CHO cells
T1 sequence (O95069 1-426): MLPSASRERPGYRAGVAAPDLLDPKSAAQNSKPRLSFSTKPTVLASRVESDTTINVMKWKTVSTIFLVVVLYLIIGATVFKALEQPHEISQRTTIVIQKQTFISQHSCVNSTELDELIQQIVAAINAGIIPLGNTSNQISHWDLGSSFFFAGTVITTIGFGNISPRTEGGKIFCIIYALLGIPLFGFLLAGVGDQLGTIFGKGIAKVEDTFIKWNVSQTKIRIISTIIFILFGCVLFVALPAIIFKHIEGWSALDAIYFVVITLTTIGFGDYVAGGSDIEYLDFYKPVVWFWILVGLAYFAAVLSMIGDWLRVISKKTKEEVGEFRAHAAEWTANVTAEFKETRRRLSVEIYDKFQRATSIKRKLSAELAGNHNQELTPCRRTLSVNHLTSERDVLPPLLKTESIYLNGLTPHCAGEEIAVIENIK
Procedure: Automated patch‐clamp studies were performed with the Qpatch Sophion Bioscience A/S (Ballerup, Denmark) automated patch‐clamp platform. Sixteen‐well Qplates were loaded with CHO cells stably expression human recombinant TREK1 (CHO–TREK1 cells) in external buffer containing (in mM) 148 NaCl, 5 KCl, 1 CaCl2, 1 MgCl2, 10 HEPES and 10 glucose. Internal recording solution was (in mM) 100 K gluconate, 40 KCl, 1 MgCl2, 10 BAPTA, 10 HEPES and 1 MgATP.
Supplementary Information
Supplementary Figure S1: Activation of hTREK1 current by GI-530159 in automated patch […]
Figure S1: Activation of hTREK1 current by GI-530159 in automated patch recordings.
A) Human TREK1 current elicited by pulse protocol shown recorded on Qpatch 16 automated patch clamp platform after administration of 0.1% DMSO vehicle, 1 µM GI-530159 or after washout with 0.1% DMSO. B) Time course of TREK1 current amplitude recorded at 0 mV on Qpatch platform before during and after washout of 1 µM GI-530159.
(1 picture or pasted object on this page, not shown here)

NaV1.7 = NaV1.7 (Homo sapiens, UniProt Q15858); assay: Sodium channel selectivity, NaV1.7; settings: read-out: EC50 against NaV1.7
TASK2 (K2P5.1) = TASK2 (K2P5.1) (Homo sapiens, UniProt O95279); assay: Rb+ efflux assay, TASK2
Kv7.1 = Kv7.1 (Homo sapiens, UniProt P51787); assay: Rb+ efflux assay, Kv7.1
NaV1.8 = NaV1.8 (Homo sapiens, UniProt Q9Y5Y9); assay: Sodium channel selectivity, NaV1.8; settings: read-out: EC50 against NaV1.8
hTREK1 [2] = biological target: T1, hTREK1; assay: 86Rb efflux from CHO–hTREK1 cells; parameters: expressed in transfected cells; settings: 60 min exposure, fit of logistic equation
Procedure: CHO–hTREK1 cells were plated on 96‐well, tissue culture‐treated clear plates (92 696) the day before the assay and incubated overnight at 37°C in the presence of 1 μCi·mL^−1 86Rubidium (Rb, NEZ072, Perkin Elmer, Waltham MA, USA). Prior to commencement of the assay, the ^86Rb spiked media were removed from the plate, and cells were washed four times with 100 μL of a 5 mM K^+ ‘Earle's balance salt solution’ (EBSS) buffer containing 135 mM NaCl, 5.4 mM KCl, 1.8 mM CaCl2, 0.8 mM MgCl2,10 mM HEPES and 5 mM glucose, pH 7.4 (adjusted with NaOH). […] Both counting plates were then read on the Wallac Microbeta to measure ^86Rb content [counts per min (CPM)]. % ^86Rb efflux values were calculated as follows: ^86Rbefflux%cell content=CPMin efflux buffer/CPMin efflux buffer+CPMin cell lysate*100.
Magnitude of ^86Rb efflux stimulation was calculated as follows: %Activation=%efflux test well−efflux in5.4mMK^+EBSS/Efflux in70mMK^+EBSS−efflux in5.4mMK^+EBSS*100.
Half maximal activation of ^86Rb efflux (EC50) value was calculated using IDBS Xlfit using a four‐parameter logistic equation and expressed as mean ± SEM.

Kv7.3 = Kv7.3 (Homo sapiens, UniProt O43525); assay: Rb+ efflux assay, Kv7.3
small rat DRG neurons = assay: Current-clamp recordings from small rat DRG neurones in short-term culture; settings: 1 μM
Procedure: Acutely dissociated rat DRG cells were obtained according to a previously described protocol (Passmore, 2005). All animal care and experimental procedures complied with guidelines and were approved by the Pfizer Neusentis Institutional Animal Use and Care Committee. Animal studies are reported in compliance with the ARRIVE guidelines (Kilkenny et al., 2010; McGrath and Lilley, 2015).Cells were plated on coated coverslips (poly‐D‐lysine/laminin, BD Biosciences, San Jose, CA, USA) prior to patching on the same day. Cells were perfused with an extracellular solution containing (in mM): 135 NaCl, 4.7 KCl, 1 CaCl2, 1 MgCl2, 10 HEPES and 10 glucose, pH 7.4, with NaOH (310 mOsmol·L^−1). Pipette solution contained (in mM): 130 KCl, 1 MgCl2, 5 MgATP, 10 HEPES and 5 EGTA, pH adjusted to 7.3 with KOH (290 mOsmol·L^−1). For whole‐cell recordings, currents were filtered at 2 kHz and sampled at 5 kHz. Series resistance was compensated for by up to 80%. For current‐clamp recordings, action potential firing and resting membrane potential (RMP) were recorded from small cells ([…]). GI‐530159 was dissolved in 0.3% DMSO as 10 mM stock and applied in the vicinity of cells using a gravity fed perfusion system (MSC‐200, Bio‐Logic SAS, Claix, France).

[3] = 15 pA depolarizing current injection, of the 14 cells tested

Chain of NaV1.8 (Q9Y5Y9 whole entry): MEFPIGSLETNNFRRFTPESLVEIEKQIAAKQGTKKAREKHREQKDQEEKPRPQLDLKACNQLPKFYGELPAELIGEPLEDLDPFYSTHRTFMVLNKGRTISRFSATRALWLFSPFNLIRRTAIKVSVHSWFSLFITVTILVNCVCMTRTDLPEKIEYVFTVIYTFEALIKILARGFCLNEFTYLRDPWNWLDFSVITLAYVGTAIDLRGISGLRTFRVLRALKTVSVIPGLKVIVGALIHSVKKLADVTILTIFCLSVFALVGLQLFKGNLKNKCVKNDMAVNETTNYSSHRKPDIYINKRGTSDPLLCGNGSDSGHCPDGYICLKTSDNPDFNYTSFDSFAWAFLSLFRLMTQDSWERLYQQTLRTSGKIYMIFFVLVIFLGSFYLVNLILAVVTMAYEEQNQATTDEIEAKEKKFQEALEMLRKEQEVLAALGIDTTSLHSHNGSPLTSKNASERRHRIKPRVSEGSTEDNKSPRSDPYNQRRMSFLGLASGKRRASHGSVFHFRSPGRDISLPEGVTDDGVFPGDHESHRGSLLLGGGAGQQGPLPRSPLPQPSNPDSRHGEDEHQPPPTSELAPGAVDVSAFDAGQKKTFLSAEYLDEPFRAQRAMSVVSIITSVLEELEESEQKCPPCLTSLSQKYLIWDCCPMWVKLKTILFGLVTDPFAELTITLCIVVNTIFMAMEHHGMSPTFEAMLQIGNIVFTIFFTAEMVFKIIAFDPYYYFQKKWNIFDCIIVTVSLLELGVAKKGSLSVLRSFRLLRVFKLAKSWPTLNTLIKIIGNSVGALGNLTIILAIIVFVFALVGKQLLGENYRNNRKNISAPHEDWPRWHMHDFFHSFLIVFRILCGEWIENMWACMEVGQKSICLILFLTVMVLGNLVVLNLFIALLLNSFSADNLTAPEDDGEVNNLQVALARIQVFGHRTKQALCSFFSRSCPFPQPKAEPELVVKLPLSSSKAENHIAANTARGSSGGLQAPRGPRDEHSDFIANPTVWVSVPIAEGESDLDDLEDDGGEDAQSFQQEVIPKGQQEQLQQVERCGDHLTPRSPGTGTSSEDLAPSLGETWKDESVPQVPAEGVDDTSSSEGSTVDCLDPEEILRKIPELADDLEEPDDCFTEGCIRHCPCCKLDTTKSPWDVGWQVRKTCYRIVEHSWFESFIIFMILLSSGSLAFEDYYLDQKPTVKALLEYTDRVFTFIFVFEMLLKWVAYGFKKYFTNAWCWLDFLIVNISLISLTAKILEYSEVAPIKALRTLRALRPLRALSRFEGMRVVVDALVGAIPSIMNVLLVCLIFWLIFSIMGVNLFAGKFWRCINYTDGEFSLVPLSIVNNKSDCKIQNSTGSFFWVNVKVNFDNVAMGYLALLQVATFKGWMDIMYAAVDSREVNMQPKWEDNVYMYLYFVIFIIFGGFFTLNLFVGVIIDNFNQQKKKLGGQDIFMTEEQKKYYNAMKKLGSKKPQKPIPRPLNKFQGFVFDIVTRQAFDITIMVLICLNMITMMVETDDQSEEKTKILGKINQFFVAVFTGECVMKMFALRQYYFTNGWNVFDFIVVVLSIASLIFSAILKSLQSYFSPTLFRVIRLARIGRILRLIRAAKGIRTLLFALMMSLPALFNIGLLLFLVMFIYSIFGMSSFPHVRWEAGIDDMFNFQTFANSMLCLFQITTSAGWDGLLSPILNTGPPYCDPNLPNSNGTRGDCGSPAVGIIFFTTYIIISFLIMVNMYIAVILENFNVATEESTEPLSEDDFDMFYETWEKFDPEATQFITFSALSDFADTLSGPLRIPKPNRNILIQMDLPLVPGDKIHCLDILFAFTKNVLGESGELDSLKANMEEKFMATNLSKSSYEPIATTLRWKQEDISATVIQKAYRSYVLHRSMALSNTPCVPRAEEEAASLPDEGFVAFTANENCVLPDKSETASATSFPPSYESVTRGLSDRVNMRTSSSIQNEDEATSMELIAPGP
Chain of NaV1.7 (Q15858 whole entry): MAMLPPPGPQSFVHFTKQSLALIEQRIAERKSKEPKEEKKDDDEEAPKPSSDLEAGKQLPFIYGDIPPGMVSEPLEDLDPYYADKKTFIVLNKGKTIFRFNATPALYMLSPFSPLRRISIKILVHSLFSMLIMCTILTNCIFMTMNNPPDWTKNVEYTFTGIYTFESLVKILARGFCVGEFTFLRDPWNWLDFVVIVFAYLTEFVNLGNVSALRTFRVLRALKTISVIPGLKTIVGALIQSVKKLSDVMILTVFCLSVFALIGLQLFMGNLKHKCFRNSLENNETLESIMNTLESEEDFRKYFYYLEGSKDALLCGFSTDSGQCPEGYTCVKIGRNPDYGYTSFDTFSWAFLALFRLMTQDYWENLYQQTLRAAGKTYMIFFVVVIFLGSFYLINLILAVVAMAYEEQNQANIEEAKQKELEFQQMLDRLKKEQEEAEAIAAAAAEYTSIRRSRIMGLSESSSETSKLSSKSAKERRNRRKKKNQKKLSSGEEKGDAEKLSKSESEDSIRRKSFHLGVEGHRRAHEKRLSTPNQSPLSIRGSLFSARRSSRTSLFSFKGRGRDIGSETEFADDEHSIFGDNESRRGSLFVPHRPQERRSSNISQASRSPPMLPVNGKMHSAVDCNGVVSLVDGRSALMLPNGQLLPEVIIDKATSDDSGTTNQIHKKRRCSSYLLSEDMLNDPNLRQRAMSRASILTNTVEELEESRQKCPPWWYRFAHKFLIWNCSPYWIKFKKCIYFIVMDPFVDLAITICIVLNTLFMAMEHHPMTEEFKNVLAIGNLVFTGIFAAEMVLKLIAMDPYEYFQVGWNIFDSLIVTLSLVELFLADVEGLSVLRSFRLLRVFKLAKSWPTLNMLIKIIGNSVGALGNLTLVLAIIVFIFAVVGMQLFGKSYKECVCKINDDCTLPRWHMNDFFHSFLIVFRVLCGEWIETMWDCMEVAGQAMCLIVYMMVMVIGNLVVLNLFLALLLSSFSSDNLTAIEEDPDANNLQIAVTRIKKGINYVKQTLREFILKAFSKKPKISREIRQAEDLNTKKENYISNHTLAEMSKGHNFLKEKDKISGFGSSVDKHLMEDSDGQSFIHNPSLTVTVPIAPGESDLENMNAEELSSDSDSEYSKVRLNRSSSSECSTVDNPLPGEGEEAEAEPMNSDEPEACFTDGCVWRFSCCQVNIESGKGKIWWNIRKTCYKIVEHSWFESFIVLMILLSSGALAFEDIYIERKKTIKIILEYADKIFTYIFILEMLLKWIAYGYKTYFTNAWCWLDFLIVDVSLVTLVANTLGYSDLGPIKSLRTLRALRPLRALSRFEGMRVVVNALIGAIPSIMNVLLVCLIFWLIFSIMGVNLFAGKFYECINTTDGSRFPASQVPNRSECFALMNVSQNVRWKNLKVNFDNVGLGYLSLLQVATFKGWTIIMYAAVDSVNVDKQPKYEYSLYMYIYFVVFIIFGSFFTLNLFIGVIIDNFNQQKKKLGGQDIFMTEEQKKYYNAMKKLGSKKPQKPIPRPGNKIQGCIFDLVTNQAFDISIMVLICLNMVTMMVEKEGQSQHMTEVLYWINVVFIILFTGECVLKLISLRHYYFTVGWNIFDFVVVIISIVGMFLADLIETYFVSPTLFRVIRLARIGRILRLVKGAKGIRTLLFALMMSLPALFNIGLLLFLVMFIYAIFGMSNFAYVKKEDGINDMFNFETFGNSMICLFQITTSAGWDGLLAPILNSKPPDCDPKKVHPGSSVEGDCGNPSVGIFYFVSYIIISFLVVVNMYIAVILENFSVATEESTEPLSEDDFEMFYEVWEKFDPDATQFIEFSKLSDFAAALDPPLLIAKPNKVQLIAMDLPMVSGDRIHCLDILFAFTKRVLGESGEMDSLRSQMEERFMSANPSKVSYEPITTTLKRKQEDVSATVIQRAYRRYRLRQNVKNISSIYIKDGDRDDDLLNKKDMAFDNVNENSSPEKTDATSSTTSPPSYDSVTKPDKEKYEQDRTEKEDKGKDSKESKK
Chain of TASK2 (K2P5.1) (O95279 whole entry, species assumed): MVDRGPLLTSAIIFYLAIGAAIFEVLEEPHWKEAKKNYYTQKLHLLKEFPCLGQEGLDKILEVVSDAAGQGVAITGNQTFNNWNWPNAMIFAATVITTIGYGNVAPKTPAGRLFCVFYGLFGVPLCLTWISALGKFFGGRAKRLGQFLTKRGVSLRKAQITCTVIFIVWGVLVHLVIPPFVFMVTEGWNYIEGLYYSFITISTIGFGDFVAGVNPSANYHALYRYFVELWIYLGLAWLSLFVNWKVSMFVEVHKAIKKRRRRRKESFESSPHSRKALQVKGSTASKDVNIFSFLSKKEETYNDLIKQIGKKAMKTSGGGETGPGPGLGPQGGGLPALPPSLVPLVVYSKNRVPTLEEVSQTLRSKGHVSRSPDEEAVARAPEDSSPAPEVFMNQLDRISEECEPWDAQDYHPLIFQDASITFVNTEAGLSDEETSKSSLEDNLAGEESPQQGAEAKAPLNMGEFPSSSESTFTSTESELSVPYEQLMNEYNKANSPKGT

## Nc1ccc(Oc2ccc(C(c3ccc(Oc4ccc(N)cc4)cc3)(C(F)(F)F)C(F)(F)F)cc2)cc1 [GI‐530159, 4,4′‐(hexafluoroisopropylidene)bis(p‐phenyleneoxy)dianiline]
hTREK1 [1]
  effect on hTREK1 current, Qpatch: effective at reversibly enhancing current
NaV1.7
  EC50: > 100 µM
TASK2 (K2P5.1)
  activator effect on TASK2 (K2P5.1): no activator effects
Kv7.1
  activator effect on Kv7.1: no activator effects
NaV1.8
  EC50: > 100 µM
hTREK1 [2]; read-out: EC50 for stimulation of 86Rb efflux
  EC50: 0.76 ± 0.1 µM
hTREK1 [2]; normalized to 70 mM K, read-out: maximum effect on 86Rb efflux, % of that seen with 70 mM K
  Emax: 142 ± 2%
Kv7.3
  activator effect on Kv7.3: no activator effects
Small rat DRG neurons; 14 cells tested
  share of cells with firing frequency reduced or abolished: 57%
  share of neurons with firing unaltered / unaffected: 43%
Small rat DRG neurons; [3]
  cells with a reduction in firing frequency: two
  cells with complete abolition in firing frequency: six
  neurons with firing unaltered: six
Small rat DRG neurons; n = 7 rats, from −54.0 ± 2.0 mV, P < 0.05
  resting membrane potential after application, averaged per rat: −57.8 ± 1.4 mV
Small rat DRG neurons; n = 14 individual neurons, from −53.6 ± 1.5 mV, P < 0.05
  resting membrane potential after application: −57.1 ± 1.5 mV
